Results published in patent US20250296971A1, “GASTRIC INHIBITORY PEPTIDE RECEPTOR LIGANDS” (priority 2021, published 2025).
Where two headings read alike, the source gives them in different places. Each block holds one molecule with its values, some of them ahead of it. *1 amine or outer side, *2 acyl side, *3 side chain or, on linkers, in order; H or OH if unused. Where a SMILES comes first, the peptide text is derived from it. Bridges are numbered along the chain shown (N, C = ends). [ ]: non-standard residue; d: D form. The star is where a group is joined. ξ: configuration not given here. X3 = O=C(O)CN1CCN(CC(=O)O)CCN(CC(=O)NCCCOCCOCCOCCCN*)CCN(CC(=O)O)CC1; NH(1-deoxy-D-glucityl) = OC[C@@H](O)[C@@H](O)[C@H](O)[C@@H](O)CN*; DOTA = O=C(O)CN1CCN(CC(=O)O)CCN(CC(=O)*)CCN(CC(=O)O)CC1; Trp(5-Cl) = N[C@@H](Cc1c[nH]c2ccc(Cl)cc12)C(=O)O; Pyridine(2,6-diCH2) = c1cc(C[*:1])nc(C[*:2])c1; mXylylene = c1cc(C[*:1])cc(C[*:2])c1; X7 = c1cc(CSCCN[*:2])cc(C[*:1])c1; Hyp = O=C(O)[C@@H]1C[C@@H](O)CN1; X1 = O=C(CN1CCC(N[*:1])CC1)[*:2]; Suc = O=C(CCC(=O)[*:2])[*:1]; Thp = NC1(C(=O)O)CCOCC1; Aib = CC(C)(N)C(=O)O; ξP = O=C(O)C1CCCN1

How the values were obtained:
[1] = target: human Gastric Inhibitory Peptide Receptor (GIPR) (human) (UniProt P48546); test: FACS competition vs biotinylated GIP-057 on CHO-K1-hGIPR cells; category D: pIC50 <=6.0
[2] = Plasma stability assay, mouse plasma; format: in vitro ADME; conditions: 37° C., % intact compound remaining after 4 h or 24 h
Description: In order to determine the stability of selected compounds of the invention in human and mouse plasma, a plasma stability assay was carried out. Such plasma stability assay measures degradation of compounds of the present invention in blood plasma. This is an important characteristic of a compound as compounds, with the exception of pro-drugs, which rapidly degrade in plasma, generally show poor in vivo efficacy. […] The stability is sufficient for the diagnostic, therapeutic and theragnostic use of these compounds according to the present invention.
The plasma stability samples were prepared by spiking 50 μL plasma aliquots (all K2EDTA) with 1 μL of a 0.5 mM compound stock solution in DMS0. After vortexing the samples were incubated in a Thermomixer at 37° C. for 0, 4 and 24 hours. After incubation the samples were stored on ice until further treatment. All samples were prepared in duplicates.
A suitable internal standard was added to each sample (1 μL of a 0.5 mM stock solution in DMSO). Protein precipitation was performed by addition of 250 μL of acetonitrile containing 1% trifluoroacetic acid. After incubation at room temperature for 30 min the precipitate was separated by centrifugation and 150 μL of the supernatant was diluted with 150 μL of 1% aqueous formic acid.
Additionally, recovery was determined by spiking a pure plasma sample that only contained the internal standard after treatment with a certain amount of the compound.
Carry-over was evaluated by analysis of a blank sample (20% acetonitrile) after the highest calibration sample.

[3] = target: T1, GIPR (CHO-K1-hGIPR cells) (Homo sapiens, UniProt P48546); test: FACS binding assay; conditions: read-out: pIC50 Category (converted)
T1 construct: host or cells: CHO-K1
T1 sequence (P48546 22-466): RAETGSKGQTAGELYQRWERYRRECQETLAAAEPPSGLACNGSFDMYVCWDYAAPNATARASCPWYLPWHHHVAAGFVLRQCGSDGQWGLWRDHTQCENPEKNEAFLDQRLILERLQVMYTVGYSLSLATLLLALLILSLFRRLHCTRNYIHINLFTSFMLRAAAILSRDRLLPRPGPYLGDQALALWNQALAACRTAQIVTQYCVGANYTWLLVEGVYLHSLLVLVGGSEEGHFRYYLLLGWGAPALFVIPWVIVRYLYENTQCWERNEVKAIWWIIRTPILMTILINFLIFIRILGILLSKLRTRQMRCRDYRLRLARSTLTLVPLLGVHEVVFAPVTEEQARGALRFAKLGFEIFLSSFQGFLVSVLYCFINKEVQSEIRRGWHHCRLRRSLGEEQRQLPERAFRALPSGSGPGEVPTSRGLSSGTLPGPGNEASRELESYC
Summary of the method: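 Peptide binding read by flow cytometry as APC-channel median fluorescence, fitted with a four-parameter logistic to yield EC50 or IC50. Cells were hGIPR-transfected CHO-K1 in PBS with 1% FCS, detected with 1 μg/mL APC-streptavidin, 30 min on ice.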

[4] = target: T2, human GIP receptor (bioGIPR) (Homo sapiens, UniProt P48546); test: Surface plasmon resonance (SPR) based binding assay; conditions: Single Cycle Kinetic mode, 25° C.
T2 construct: Biotinylate extracellular of the human GIP receptor (bioGIPR, Proteros biostructures GmbH, lot #02/2b); purchased Proteros biostructures GmbH lot #02/2b
T2 sequence (P48546 22-138 limits assumed): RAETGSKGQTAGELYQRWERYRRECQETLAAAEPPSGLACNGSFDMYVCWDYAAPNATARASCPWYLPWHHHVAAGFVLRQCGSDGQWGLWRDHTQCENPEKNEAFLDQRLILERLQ
Summary of the method: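 Binding was measured at 25 °C by single-cycle kinetics against a reference flow cell, with blank-run and drift correction, after capturing biotinylated GIPR extracellular domain to ~3500 RU. Running buffer: HBST, 0.1% DMSO. A 1:1 Langmuir model gave kinetic rates, KD, t1/2 and pKD.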

[5] = target: biotinylated extracellular domain of the human GIP receptor (bioGIPR) (human) (UniProt P48546); test: SPR single cycle kinetics, bioGIPR captured on chip; category A: pKD >9.0
[6] = target: biotinylated extracellular domain of the human GIP receptor (bioGIPR) (human) (UniProt P48546); test: SPR single cycle kinetics, bioGIPR captured on chip; category A: t1/2 >15 min
[7] = target: human Gastric Inhibitory Peptide Receptor (human) (UniProt P48546); test: FACS competition with GIP-057 on CHO-K1-hGIPR cells; pIC50 category B: 7.1-8.0
[8] = competition with 20 nM GIP-057, 4° C., 1 hour

- pIC50 [1]: < 6 pic50
Molecule: HO-Succinyl-Trp-Trp-Pro-Glu-leu-[Cys(3MeBn)-ala-Leu-Ile-Cys]-Ttds-Lys(DOTA)-NH2 (peptide)

- Mouse plasma stability category [2]: B (>80% intact after 4 hours)
- IC50 [3, 8]: 10 to 79.4 nM
Molecule: CC[C@H](C)[C@@H]1NC(=O)[C@H](CC(C)C)NC(=O)C(C)(C)NC(=O)[C@@H](NC(=O)[C@@H](CC(C)C)NC(=O)[C@H](CCC(=O)O)NC(=O)[C@@H]2CCCN2C(=O)[C@H](Cc2c[nH]c3ccccc23)NC(=O)[C@H](Cc2c[nH]c3ccccc23)NC(=O)[C@H](CC(=O)O)NC(=O)CCC(=O)NCCCOCCOCCOCCCNC(=O)CN2CCN(CC(=O)O)CCN(CC(=O)O)CCN(CC(=O)O)CC2)CSCc2cccc(c2)CSC[C@@H](C(N)=O)NC1=O [GIP-128, DOTA-Ttds-Asp-Trp-Trp-Pro-Glu-leu-[Cys(3MeBn)-Aib-Leu-Ile-Cys]-NH2] ({X3-Suc}-DWWPE[dL]C[Aib]LIC-NH2; linker 7-11 via mXylylene)

- pIC50 [1]: < 6 pic50
Molecule: Ac-Asp-Trp-1Ni-Pro-Glu-Thi-[Cys(3MeBn)-Aib-Leu-Ile-Cys]-NH2 (peptide)

- Mouse plasma stability category [2]: B (>80% intact after 4 hours)
- IC50 [3, 8]: 10 to 79.4 nM
Molecule: CC[C@H](C)[C@@H]1NC(=O)[C@H](CC(C)C)NC(=O)C(C)(C)NC(=O)[C@@H](NC(=O)[C@@H](CC(C)C)NC(=O)[C@H](CCC(=O)O)NC(=O)[C@@H]2CCCN2C(=O)[C@H](Cc2c[nH]c3ccccc23)NC(=O)[C@H](Cc2c[nH]c3ccccc23)NC(=O)[C@H](CC(=O)O)NC(=O)CCC(=O)NCCCOCCOCCOCCCNC(=O)CN2CCN(CC(=O)O)CCN(CC(=O)O)CCN(CC(=O)O)CC2)CSCc2cccc(c2)CSCCNC1=O [GIP-129, DOTA-Ttds-Asp-Trp-Trp-Pro-Glu-leu-[Cys(3MeBn)-Aib-Leu-Ile-AET]] ({X3-Suc}-DWWPE[dL]C[Aib]LI; linker 7-C via X7)

- Mouse plasma stability category [2]: B (>80% intact after 4 hours)
- IC50 ([3]; competition with 20 nM GIP-057, 4° C. for 1 hour): 100 to 794 nM
Molecule: CC[C@H](C)[C@@H]1NC(=O)[C@H](CC(C)C)NC(=O)C(C)(C)NC(=O)[C@@H](NC(=O)[C@H](CC(C)C)NC(=O)[C@@H](CCC(=O)O)NC(=O)C2CCCN2C(=O)[C@H](Cc2c[nH]c3ccccc23)NC(=O)[C@H](Cc2c[nH]c3ccccc23)NC(=O)[C@H](CC(=O)O)NC(=O)CCC(=O)NCCCOCCOCCOCCCNC(=O)CN2CCN(CC(=O)O)CCN(CC(=O)O)CCN(CC(=O)O)CC2)CSCc2cccc(c2)CSC[C@@H](C(N)=O)NC1=O (stereo partly drawn) [GIP-270, DOTA-Ttds-Asp-Trp-Trp-Pro-glu-Leu-[Cys(3MeBn)-Aib-Leu-Ile-Cys]-NH2] ({X3-Suc}-DWW[ξP][dE]LC[Aib]LIC-NH2; linker 7-11 via mXylylene)

- Mouse plasma stability category [2]: A (>80% intact after 24 hours)
- IC50 [3, 8]: < 10 nM
- t1/2 Category ([4]; SPR dissociation half-life): A (t1/2 values>15 min)
- Kd ([4]; SPR, 1:1 Langmuir binding model, read-out: pKD Category (converted)): < 1 nM
Molecule: CC[C@H](C)[C@@H]1NC(=O)[C@H](CC(C)C)NC(=O)C2(CCOCC2)NC(=O)[C@@H](NC(=O)[C@@H](CC(C)C)NC(=O)[C@H](CCC(=O)O)NC(=O)[C@@H]2C[C@@H](O)CN2C(=O)[C@H](Cc2c[nH]c3ccc(Cl)cc23)NC(=O)[C@H](Cc2c[nH]c3ccccc23)NC(=O)[C@H](CC(=O)O)NC(=O)CN2CCC(NC(=O)[C@@H](CCC(=O)NC[C@H](O)[C@@H](O)[C@H](O)[C@H](O)CO)NC(=O)CN3CCN(CC(=O)O)CCN(CC(=O)O)CCN(CC(=O)O)CC3)CC2)CSCc2cccc(n2)CSC[C@@H](C(=O)NC2CCN(CC(=O)N[C@H](CCC(=O)NC[C@H](O)[C@@H](O)[C@H](O)[C@H](O)CO)C(N)=O)CC2)NC1=O [GIP-005, DOTA-glu(AGLU)-APAc-Asp-Trp-5Clw-Hyp-Glu-leu-[Cys(2Lut)-Thp-Leu-Ile-Cys]-APAc-glu(AGLU)-NH2] ({DOTA}-[dE](NH(1-deoxy-D-glucityl))[X1]DW[Trp(5-Cl)][Hyp]E[dL]C[Thp]LIC[X1][dE](NH(1-deoxy-D-glucityl))-NH2; linker 9-13 via Pyridine(2,6-diCH2))

- pKD [5]: > 9 pkd
- t1/2 [6]: > 15 min
- pIC50 [7]: 7.1 to 8 pic50
Molecule: AGLU-Glutar-APAc-Asp-Trp-5Clw-Tap(AGLU-Glutar)-Glu-leu-[Cys(2Lut)-Apc(DOTA-glu(AGLU))-Leu-Ile-Cys]-APAc-glu(AGLU)-NH2 (peptide)

- pIC50 [1]: < 6 pic50
B1: Ac-Asp-Trp-5Clw-Hyp-Glu-leu-[Cys(2Lut)-Thp-Leu-Arg-Cys]-NH2 (peptide)
peptide: Ac-DW[Trp(5-Cl)][Hyp]E[dL]C[Thp]LRC-NH2
modifications: linker 7-11 via Pyridine(2,6-diCH2)
SMILES: CC(=O)N[C@@H](CC(=O)O)C(=O)N[C@@H](Cc1c[nH]c2ccccc12)C(=O)N[C@@H](Cc1c[nH]c2ccc(Cl)cc12)C(=O)N1C[C@H](O)C[C@H]1C(=O)N[C@@H](CCC(=O)O)C(=O)N[C@H](CC(C)C)C(=O)N[C@H]1CSCc2cccc(n2)CSC[C@@H](C(N)=O)NC(=O)[C@H](CCCNC(=N)N)NC(=O)[C@H](CC(C)C)NC(=O)C2(CCOCC2)NC1=O
